Experimental data: US20260240844A1, “INHIBITORS OF CHD1L AND USES THEREOF” (The Regents of the University of Colorado, a body corporate, priority 2023, published 2026)
Read-outs that look alike come from different tables or passages of the source.

Key:
Colo678 cells = experiment: Colo678 cell viability, combination with chemotherapy; format: cell-based; details: Colo678 cells
AIF in SUM149PT cells = experiment: AIF immunofluorescence in SUM149PT (SUM149) cells; format: cell-based; details: SUM149 cells, 4 μM
Text: CHD1Li-mediated PAR translocation to the cytoplasm activates PARthanatos as a cell death mechanism. Parthanatos is a form a programmed cell death different from apoptosis and known to be mediated by PARP1 overactivation. The unique events occurring during parthanatos are: PARP1 rapid activation, accumulation of PAR and nuclear translocation of apoptosis inducing factor (AIF). Without being bound by any particular theory, accumulation of PAR in the cytoplasm caused by CHD1Li can also mediate parthanatos. To better understand the link between PAR translocation to the cytoplasm and cell death, immunofluorescence to measure the activation of caspase-3 and the subcellular localization of AIF after treatment with SOC drugs and Compound 6 in SUM49PT cells was used. […] Without being bound by any particular theory, this might be caused by the mitochondrial outer membrane permeabilization, which triggers release of mitochondrial proteins like AIF or cytochrome c, activating caspase-3 by its cleavage and leading to apoptosis. […] Moreover, when combining CHD1L inhibition with SOC drugs, the cell death mechanism shifts from apoptosis to parthanatos, evidenced by a significant increase in AIF nuclear translocation and decrease in activation of caspase-3 (FIG. 25D-E).
(§1) The ability of Compounds 12, 15 and 16 to localize AIF was tested in SUM149 (breast cancer) and MDA-MB-231 (TNBC) cell lines. A comparison of the relative distribution of AIF in nuclei (a) versus cytoplasm (b) in SUM149 cells and nuclei (c) versus cytoplasm (d) in MDA-MB-231 cells in the presence of 4 μM Compounds 12, 15 and 16 are shown in FIG. 28. […] Similarly, AIF concentration in the cytoplasm of MDA-MB-231 cells decreased by about 0.5 after administration with Compound 15. After treatment with Compound 16, the relative concentration of AIF in the nuclei of SUM149 cells increased by about 0.5-fold, and the concentration of AIF in the cytoplasm decreased by about 0.4-fold. In MDA-MB-231 cells, the relative concentration of AIF in the cytoplasm decreased by about 0.5-fold, while the concentration of AIF increased in the nuclei by about 0.1-fold.

AIF in MDA-MB-231 cells = experiment: AIF localization in MDA-MB-231 cells; format: cell-based; details: 4 μM
Protocol: as §1

Colo679 cells = experiment: DDR biomarkers (pATM, RAD51, 53BP1, γ-H2AX) in Colo679 cells; format: cell-based; details: 4 μM
Text: (§2) Etoposide was used as a control to show upregulation of DDR pathway biomarkers.

[1] = test system: SUM149 and MDA-MB-231 cells; experiment: DDR biomarkers in breast cancer cells; format: cell-based; details: 4 μM
Text: as §2

SW948 tumor organoids = experiment: cells
Protocol: ATM is an important protein involved in the initial stages of the DNA damage response. […] ATM mutations are important markers being developed to identify metastatic CRC (mCRC) patients that may be sensitive to DNA damaging chemotherapy.
Synergy was assessed using the Bliss model.

[2] = test system: SW620 CRC cells cultured as tumor organoids; experiment: Viability of isolated EMT phenotype SW620 tumor organoids; format: cell-based; details: SW620 E, E/M, 72 h, combined with Compound 6
Protocol: FIG. 5A provides graphs showing isolated quasi EMT SW620 CRC cells E (red), E/M (yellow), and M (green) were cultured as tumor organoids and treated with SN38 combined with Compound 6 over 72 h as indicated. […].
CHD1L also regulates DNA repair via CHD1L/TCF-driven EMT by upregulating ZEB1 in CRC. ZEB1 promotes mesenchymal cell survival by upregulating the DDR. CHD1Li may sensitize isolated quasi EMT phenotypes by inhibiting EMT and DNA repair. To test this, combination studies with Compound 6 and chemotherapy measuring the viability of isolated EMT dual-reporter quasi-E, -E/M, and -M SW620 (HR-proficient) cells and HCT116 (HR-deficient) cells cultured as tumor organoids were tested. […]. […] […]. Taken together, CHD1Li synergized with chemotherapy and targeted therapy to overcome EMT-mediated drug resistance in CRC.

SW620 tumor organoids = details: 72 h; for IC50: read-out: IC50 SN38
HCT116 Parental cells = experiment: HCT116 Parental cell viability, combination with chemotherapy; format: cell-based; details: HCT116 cells
SW620 Parental cells = experiment: SW620 Parental cell viability, combination with chemotherapy; format: cell-based; details: SW620 cells
MiaPaca2 cells = experiment: MiaPaca2 cell viability, combination with chemotherapy; format: cell-based; details: MiaPaca2 cells
Text: The cell viability assays and Bliss synergy analyses are as described above in Examples 1-9 and 11-12.

[3] = SW620 tumor organoids, + Compound 6.11 2.75 μM

| Compound | calculated mean synergy score (Colo678 cells; 72 h, combined with SN-38) | decrease in AIF in the cytoplasm (AIF in SUM149PT cells) | increase in AIF in the nucleus (AIF in SUM149PT cells) | increase in AIF in the nuclei (AIF in MDA-MB-231 cells) | amount of 53BP1 (Colo679 cells) | amount of pATM (Colo679 cells) | γ-H2AX concentrations (Colo679 cells) | amounts of γ-H2AX and 53BP1 [1] | also measured |
| --- | --- | --- | --- | --- | --- | --- | --- | --- | --- |
| Cc1cc(Nc2ccc(NC(=O)Cc3c[nH]c4c(Cl)cccc34)cc2)nc(N2CCCC2)n1 [Compound 16, 2-(7-chloro-1H-indol-3-yl)-N-(4-((6-methyl-2-(pyrrolidin-1-yl)pyrimidin-4-yl)amino)phenyl)acetamide] | about 26 | about 0.4 fold | about 0.5 fold | about 0.1 fold | decrease the amount of 53BP1 | increased the amount of pATM | decreased | overall decreases in the amounts of γ-H2AX and 53BP1 | decrease in AIF in the cytoplasm (AIF in MDA-MB-231 cells): about 0.5 fold |
| CCc1c2c(nc3ccc(O)cc13)-c1cc3c(c(=O)n1C2)COC(=O)[C@]3(O)CC [SN-38] |  |  |  |  |  |  |  |  | increase in potency of the chemotherapy (SW948 tumor organoids; SW948 tumor organoids, combined with Compound 6): 1000 fold; improvement of cytotoxic potency (SW948 tumor organoids; SW948 tumor organoids, combined with Compound 6.11): 1,000 fold; IC50 (SW948 tumor organoids; read-out: IC50 SN38, SW948 tumor organoids, SN38 alone): 3160 nM; IC50 (SW948 tumor organoids; read-out: IC50 SN38, SW948 tumor organoids, combined with Compound 6.11): 3.2 nM; IC50 (SW948 tumor organoids; read-out: IC50 SN-38, SW948 tumor organoids, combined with Compound 6): ~3 nM; IC50 (SW948 tumor organoids; read-out: IC50 of chemotherapy alone, SW948 chemo resistant tumor organoids): ~3000 nM; increase of SN38 cytotoxic potency [2]: hundreds-of-fold to thousands-of-fold; increase in cytotoxic potency compared to drug alone (SW620 tumor organoids; [3]): ~ 600 fold; IC50 (SW620 tumor organoids; SW620 (ATM wt) tumor organoids, SN38 alone): ~600 nM; IC50 (SW620 tumor organoids; [3]): ~1 nM |
| Cc1cc(Nc2ccc(NC(=O)c3cnc(Br)s3)cc2)nc(N2CCCC2)n1 [Compound 14, 2-bromo-N-(4-((6-methyl-2-(pyrrolidin-1-yl)pyrimidin-4-yl)amino)phenyl)thiazole-5-carboxamide] | about 57 |  |  |  | decrease the amount of 53BP1 | increased the amount of pATM | decreased | overall decreases in the amounts of γ-H2AX and 53BP1 | calculated mean synergy score (Colo678 cells; combined with 5-FU): about 26 |
| Cc1cc(Nc2ccc(NC(=O)c3cc(Br)c[nH]3)cc2)nc(N2CCCC2)n1 [Compound 12, 4-bromo-N-(4-((6-methyl-2-(pyrrolidin-1-yl)pyrimidin-4-yl)amino)phenyl)-1H-pyrrole-2-carboxamide] | about 26 | decrease in AIF in the cytoplasm | ~1 fold | localized in both the nuclei and remained in the cytoplasm | decrease the amount of 53BP1 | increased the amount of pATM | decreased | overall decreases in the amounts of γ-H2AX and 53BP1 | calculated mean synergy score (HCT116 Parental cells; 72 h, combined with SN-38): about 20; calculated mean synergy score (HCT116 Parental cells; combined with 5-FU): about 19; calculated mean synergy score (SW620 Parental cells; 72 h, combined with SN-38): about 53; calculated mean synergy score (SW620 Parental cells; combined with 5-FU): about 39; calculated mean synergy score (MiaPaca2 cells; combined with 5-FU): about 57; calculated mean synergy score (MiaPaca2 cells; combined with SN-38): about 18; amount of RAD51 (Colo679 cells): decrease in RAD51 |
